Data: patent US8299267B2, “(3-hydroxy-4-amino-butan-2-yl) -3- (2-thiazol-2-yl-pyrrolidine-1-carbonyl) benzamide derivatives and related compounds as beta-secretase inhibitors for treating” (CoMentis, Inc., priority 2007, dated 2012)

Tests used:
[1] = system: Aβ production in Chinese hamster ovary cells that over-express human APP695 with the London and Swedish mutations; assay: Cellular Aβ IC50 determination (Aβ40 sandwich ELISA); assay type: cell-based; conditions: Cricetulus griseus; Aβ40 in CHO cells over-expressing human APP695, 24 h incubation
Procedure: The potency of compounds against memapsin 2 activity was determined in a cellular assay of Aβ production. […] Chinese hamster ovary cells that over-express human APP695 with the London and Swedish mutations were seeded in multi-well plates at 10% confluency. Compounds are dissolved in DMSO to concentrations near 1 mM, and diluted into culture media to a final concentration near 4 μM (final 0.4% DMSO). Compounds were diluted serially and applied to cells in multi-well plates 48 h after seeding. Incubation was continued in 5% CO2 at 37° C. for 24 h. Aliquots were removed and assayed for Aβ40 content using a sandwich ELISA (BioSource International). Amount of Aβ40 over the range of concentration of compounds, relative to control incubations, were fit to a 4-parameter IC50 model.

memapsin 2 = memapsin 2 (Homo sapiens, UniProt P56817); assay: Inhibition of memapsin 2 beta-secretase activity toward fluorogenic substrate FS-2; assay type: biochemical; conditions: memapsin 2, pH 4, 37° C., 20 minutes pre-incubation, substrate FS-2; read-out: M2Ki
Sequence of memapsin 2 (P56817 46-501): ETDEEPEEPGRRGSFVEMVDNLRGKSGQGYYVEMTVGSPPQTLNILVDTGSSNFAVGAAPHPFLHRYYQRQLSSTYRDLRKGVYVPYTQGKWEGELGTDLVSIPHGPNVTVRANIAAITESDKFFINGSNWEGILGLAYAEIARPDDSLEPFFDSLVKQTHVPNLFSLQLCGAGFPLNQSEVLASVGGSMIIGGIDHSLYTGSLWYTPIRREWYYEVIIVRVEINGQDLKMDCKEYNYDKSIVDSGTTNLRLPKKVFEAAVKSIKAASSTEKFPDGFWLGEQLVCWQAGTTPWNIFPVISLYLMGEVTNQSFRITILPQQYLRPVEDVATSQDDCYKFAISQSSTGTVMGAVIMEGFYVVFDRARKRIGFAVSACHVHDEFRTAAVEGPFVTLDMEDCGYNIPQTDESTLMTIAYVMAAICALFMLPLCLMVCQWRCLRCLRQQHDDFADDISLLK
Procedure: Potency of compounds were determined by measurement of their inhibition of memapsin 2 activity toward a fluorescent substrate. Kinetic inhibition experiments were performed using the procedure as described in Ermolieff, et al. (Biochemistry 39:12450-12456 (2000), the teachings of which are incorporated hereby in their entirety). Briefly, assays were performed at pH 4, 37° C., by pre-incubation of memapsin 2 enzyme with compound for 20 minutes. Activity measurements were initiated by addition of a fluorogenic substrate FS-2 (Bachem Americas, Torrance, Calif.) MCA-SEVNLDAEFK-DNP (SEQ ID NO.: 2). The substrate was derived from 10 amino acids of the human amyloid precursor protein (APP), with the Swedish variant amino acids at the beta-secretase cleavage site. The terminal amino acid was modified from arginine to lysine to facilitate derivatization with a functional group for detection by autofluorescence. The amino acid sequence of the “core” peptide of the substrate is SEVNLDAEFK (SEQ ID NO.: 3). The amino terminus was derivatized with (7-methoxycoumarin-4-yl)acetyl (MCA), and the epsilon amine of the lysine side chain of the terminal residue (K in sequence SEVNLDAEFK (SEQ ID NO.: 4)) was derivatized with 2,4-dinitrophenyl (DNP).

| Compound | IC50 [1] | Ki (memapsin 2) |
| --- | --- | --- |
| COC[C@H]1CCCN1C(=O)c1cc(C)cc(C(=O)N[C@@H](Cc2ccccc2)[C@H](O)CNCc2cccc(OC)c2)c1 [Compound 3, N-((2S,3R)-3-hydroxy-4-(3-methoxybenzylamino)-1-phenylbutan-2-yl)-3-((R)-2-(methoxymethyl)pyrrolidine-1-carbonyl)-5-methylbenzamide] | < 300 nM | < 100 nM |
| COc1cccc(CNC[C@@H](O)[C@H](Cc2ccccc2)NC(=O)c2cccc(C(=O)N3CCCC[C@@H]3c3nc(C)cs3)c2)c1 [Compound 5, N-((2S,3R)-3-hydroxy-4-(3-methoxybenzylamino)-1-phenylbutan-2-yl)-3-((R)-2-(4-methylthiazol-2-yl)piperidine-1-carbonyl)benzamide] | > 501 nM | < 100 nM |
| COc1cccc(CNC[C@@H](O)[C@H](Cc2ccccc2)NC(=O)c2cccc(C(=O)N3CSC[C@@H]3c3nc(C)cs3)c2)c1 [Compound 8, N-((2S,3R)-3-hydroxy-4-(3-methoxybenzylamino)-1-phenylbutan-2-yl)-3-((R)-4-(4-methylthiazol-2-yl)thiazolidine-3-carbonyl)benzamide] | < 300 nM | < 100 nM |
| COc1cccc(CNC[C@@H](O)[C@H](Cc2ccccc2)NC(=O)c2cc(OC)cc(C(=O)N3CCC[C@@H]3c3nc(C)cs3)c2)c1 [Compound 11, N-((2S,3R)-3-hydroxy-4-(3-methoxybenzylamino)-1-phenylbutan-2-yl)-3-methoxy-5-((R)-2-(4-methylthiazol-2-yl)pyrrolidine-1-carbonyl)benzamide] | < 300 nM | < 100 nM |
| COc1cc(C(=O)N[C@@H](Cc2ccccc2)[C@H](O)CNCc2cccc(C(C)(C)C)c2)cc(C(=O)N2CCC[C@@H]2c2nc(C)cs2)c1 [Compound 16, N-((2S,3R)-4-(3-tert-butylbenzylamino)-3-hydroxy-1-phenylbutan-2-yl)-3-methoxy-5-((R)-2-(4-methylthiazol-2-yl)pyrrolidine-1-carbonyl)benzamide] | < 300 nM | < 100 nM |
| Cc1csc([C@H]2CCCN2C(=O)c2cccc(C(=O)N[C@@H](Cc3ccccc3)[C@H](O)CNCc3cccc(Cl)c3)c2)n1 [Compound 17, N-((2S,3R)-4-(3-chlorobenzylamino)-3-hydroxy-1-phenylbutan-2-yl)-3-((R)-2-(4-methylthiazol-2-yl)pyrrolidine-1-carbonyl)benzamide] | < 300 nM | < 100 nM |
| COc1cc(C(=O)N[C@@H](Cc2ccccc2)[C@H](O)CNCc2cccc(Cl)c2)cc(C(=O)N2CCC[C@@H]2c2nc(C)cs2)c1 [Compound 18, N-((2S,3R)-4-(3-chlorobenzylamino)-3-hydroxy-1-phenylbutan-2-yl)-3-methoxy-5-((R)-2-(4-methylthiazol-2-yl)pyrrolidine-1-carbonyl)benzamide] | < 300 nM | < 100 nM |
| COc1cc(C(=O)N[C@@H](Cc2ccccc2)[C@H](O)CN[C@@H](C)c2cccc(OC)c2)cc(C(=O)N2CCC[C@@H]2c2nc(C)cs2)c1 [Compound 20, N-((2S,3R)-3-hydroxy-4-((S)-1-(3-methoxyphenyl)ethylamino)-1-phenylbutan-2-yl)-3-methoxy-5-((R)-2-(4-methylthiazol-2-yl)pyrrolidine-1-carbonyl)benzamide] | < 300 nM | < 100 nM |
| COc1cccc(CNC[C@@H](O)[C@H](Cc2ccccc2)NC(=O)c2cccc(C(=O)N3CCCC3)c2)c1 [Compound 21, N-((2S,3R)-3-hydroxy-4-(3-methoxybenzylamino)-1-phenylbutan-2-yl)-3-(pyrrolidine-1-carbonyl)benzamide] | > 501 nM | > 201 nM |
| COc1cccc([C@H](C)NC[C@@H](O)[C@H](Cc2ccccc2)NC(=O)c2cccc(C(=O)N3CCC[C@@H]3c3nc(C)cs3)c2)c1 [Compound 22, N-((2S,3R)-3-hydroxy-4-((S)-1-(3-methoxyphenyl)ethylamino)-1-phenylbutan-2-yl)-3-((R)-2-(4-methylthiazol-2-yl)pyrrolidine-1-carbonyl)benzamide] | < 300 nM | < 100 nM |
| COC[C@H]1CCCN1C(=O)c1cc(C)cc(C(=O)N[C@@H](Cc2ccccc2)[C@H](O)CNCc2cncc(C(C)C)c2)c1 [Compound 23, N-((2S,3R)-3-hydroxy-4-((5-isopropylpyridin-3-yl)methylamino)-1-phenylbutan-2-yl)-3-((R)-2-(methoxymethyl)pyrrolidine-1-carbonyl)-5-methylbenzamide] | < 300 nM | < 100 nM |
| Cc1csc([C@H]2CCCN2C(=O)c2cccc(C(=O)N[C@@H](Cc3ccccc3)[C@H](O)CNCc3cc(O)cc(C(C)C)c3)c2)n1 [Compound 24, N-((2S,3R)-3-hydroxy-4-(3-hydroxy-5-isopropylbenzylamino)-1-phenylbutan-2-yl)-3-((R)-2-(4-methylthiazol-2-yl)pyrrolidine-1-carbonyl)benzamide] | < 300 nM | < 100 nM |
| Cc1csc([C@H]2CCCN2C(=O)c2cc(C(=O)N[C@@H](Cc3ccccc3)[C@H](O)CNCc3cncc(C(C)C)c3)cc(-c3ncco3)c2)n1 [Compound 25, N-((2S,3R)-3-hydroxy-4-((5-isopropylpyridin-3-yl)methylamino)-1-phenylbutan-2-yl)-3-((R)-2-(4-methylthiazol-2-yl)pyrrolidine-1-carbonyl)-5-(oxazol-2-yl)benzamide] | < 300 nM | < 100 nM |
| Cc1csc([C@H]2COCN2C(=O)c2cccc(C(=O)N[C@@H](Cc3ccccc3)[C@H](O)CNCc3cccc(C(F)(F)F)c3)c2)n1 [Compound 26, N-((2S,3R)-3-hydroxy-1-phenyl-4-(3-(trifluoromethyl)benzylamino)butan-2-yl)-3-((R)-4-(4-methylthiazol-2-yl)oxazolidine-3-carbonyl)benzamide] | < 300 nM | < 100 nM |
| Cc1csc([C@H]2CCCN2C(=O)c2cncc(C(=O)N[C@@H](Cc3ccccc3)[C@H](O)CNCc3cncc(C(C)C)c3)c2)n1 [Compound 27, N-((2S,3R)-3-hydroxy-4-((5-isopropylpyridin-3-yl)methylamino)-1-phenylbutan-2-yl)-5-((R)-2-(4-methylthiazol-2-yl)pyrrolidine-1-carbonyl)nicotinamide] | < 300 nM | < 100 nM |
| Cc1coc([C@H]2CCCN2C(=O)c2cccc(C(=O)N[C@@H](Cc3ccccc3)[C@H](O)CNCc3cncc(C(C)(C)C)c3)c2)n1 [Compound 111, N-((2S,3R)-4-((5-tert-butylpyridin-3-yl)methylamino)-3-hydroxy-1-phenylbutan-2-yl)-3-((R)-2-(4-methyloxazol-2-yl)pyrrolidine-1-carbonyl)benzamide] | – | < 100 nM |
| Cc1cc(C(=O)N[C@@H](Cc2ccccc2)[C@H](O)CNCc2cncc(C(C)(C)C)c2)cc(C(=O)N2CCC[C@@H]2c2nc(C)co2)c1 [Compound 112, N-((2S,3R)-4-((5-tert-butylpyridin-3-yl)methylamino)-3-hydroxy-1-phenylbutan-2-yl)-3-methyl-5-((R)-2-(4-methyloxazol-2-yl)pyrrolidine-1-carbonyl)benzamide] | – | < 100 nM |
| Cc1cc(C(=O)N[C@@H](Cc2ccccc2)[C@H](O)CNCc2cncc(C(C)(F)F)c2)cc(C(=O)N2CCC[C@@H]2c2nc(C)co2)c1 [Compound 113, N-((2S,3R)-4-((5-(1,1-difluoroethyl)pyridin-3-yl)methylamino)-3-hydroxy-1-phenylbutan-2-yl)-3-methyl-5-((R)-2-(4-methyloxazol-2-yl)pyrrolidine-1-carbonyl)benzamide] | – | < 100 nM |
| Cc1coc([C@H]2CCCN2C(=O)c2cccc(C(=O)N[C@@H](Cc3ccccc3)[C@H](O)CNCc3cccc(OC(F)(F)F)c3)c2)n1 [Compound 114, N-((2S,3R)-3-hydroxy-1-phenyl-4-(3-(trifluoromethoxy)benzylamino)butan-2-yl)-3-((R)-2-(4-methyloxazol-2-yl)pyrrolidine-1-carbonyl)benzamide] | – | < 100 nM |
| Cc1cc(C(=O)N[C@@H](Cc2ccccc2)[C@H](O)CNCc2cccc(OC(F)(F)F)c2)cc(C(=O)N2CCC[C@@H]2c2nc(C)co2)c1 [Compound 115, N-((2S,3R)-3-hydroxy-1-phenyl-4-(3-(trifluoromethoxy)benzylamino)butan-2-yl)-3-methyl-5-((R)-2-(4-methyloxazol-2-yl)pyrrolidine-1-carbonyl)benzamide] | – | < 100 nM |
| Cc1cc(C(=O)N[C@@H](Cc2ccccc2)[C@H](O)CNCc2cncc(C(C)(F)F)c2)cc(C(=O)N2CCC[C@@H]2c2nc(C)cs2)c1 [Compound 116, N-((2S,3R)-4-((5-(1,1-difluoroethyl)pyridin-3-yl)methylamino)-3-hydroxy-1-phenylbutan-2-yl)-3-methyl-5-((R)-2-(4-methylthiazol-2-yl)pyrrolidine-1-carbonyl)benzamide] | – | < 100 nM |
